Experimental findings from patent EP0117176A1, “Zinc salt of L-thiazolidine-4-carboxylic acid, its preparation, compositions containing it and its use” (PIERRE FABRE S.A., priority 1983, dated 1984) are described below.

One series can be described thus: Solubility. It is filed as physicochemical. To be noted: dans les solvants organiques. The source says: Solubilité : Soluble dans l'eau à 1 %. Insoluble dans les solvants organiques.
Series [1] in a line: Antioxidant power: peroxide index during oxidation of linoleic acid (method of CARNAT and POURRAT, linoleic acid instead of linseed oil). The procedure:
La mesure du pouvoir antioxydant est effectuée selon la méthode décrite par CARNAT et POURRAT (Ann. Pharm. Fr. 1979, 37, n° 3-4, p. 119-124) en remplaçant l'huile de lin par de l'acide linoléique. L'oxydation de l'acide linoléique est suivie chaque jour par une mesure de l'indice de péroxyde Ip.
Dans un flacon contenant l'acide linoléique, on ajoute 15 ml de CHCl3, 20 ml d'acide acétique RP puis 1 ml de solution aqueuse saturée de IK. On agite une minute et on laisse reposer le flacon 5 minutes à l'obscurité.
A près voir ajouté 100 ml d'eau, on dose l'iode libéré par du thiosulfate de sodium 0,01 N.

The test system of a further series is lipase. The series can be described thus: Antilipase power: inhibition of hydrolysis of glycerol tributyrate by lipase. Type of series: biochemical. Particulars: substrate tributyrate de glycérol. As to the method: Le milieu d'incubation témoin ne contient que des acides gras estérifiés (tributyrate de glycérol).
L'ajout de lipase dans le milieu entraîne l'hydrolyse du tributyrate de glycérol.
L'incorporation de L-thiazolidine-4 carboxylate de zinc avant l'adjonction de lipase empêche la libération d'acide butyrique. Les résultats obtenus sont regroupés dans le tableau suivant : […]

Series [2] is described as follows: Local tolerance on shaved flank. It is filed as in vivo. Particulars: 5 cobayes albinos adultes; application three times a week for two weeks on shaved flank. The text has this:
La tolérance a été recherchée sur 5 cobayes albinos adultes.

For the substance L-thiazolidine-4 carboxylate de zinc, the Solubilité result in the series “Solubility” is listed as “Insoluble”. The “Indice de péroxydes” value is recorded as 0,91 in series [1] (Temps 0 h), 12,7 in series [1] (Temps 24 h) and 25.2 in series [1] (Temps 48 h). The “% d'inhibition mesuré” value with lipase (5 mg) is recorded as 52%; in the series on lipase (10 mg), 71,5%. Moreover, in series [2], the Tolérance locale entry was “aucune réaction”.
